The source of these data is patent US9758492B2, “IDO inhibitors” (Bristol-Myers Squibb Company, priority 2013, dated 2017).

The experiment deals with T1, Human IDO1 (Homo sapiens, UniProt P14902).
T1 construct: expressed in transfected cells; host or cells: HEK293
T1 sequence (P14902 whole entry): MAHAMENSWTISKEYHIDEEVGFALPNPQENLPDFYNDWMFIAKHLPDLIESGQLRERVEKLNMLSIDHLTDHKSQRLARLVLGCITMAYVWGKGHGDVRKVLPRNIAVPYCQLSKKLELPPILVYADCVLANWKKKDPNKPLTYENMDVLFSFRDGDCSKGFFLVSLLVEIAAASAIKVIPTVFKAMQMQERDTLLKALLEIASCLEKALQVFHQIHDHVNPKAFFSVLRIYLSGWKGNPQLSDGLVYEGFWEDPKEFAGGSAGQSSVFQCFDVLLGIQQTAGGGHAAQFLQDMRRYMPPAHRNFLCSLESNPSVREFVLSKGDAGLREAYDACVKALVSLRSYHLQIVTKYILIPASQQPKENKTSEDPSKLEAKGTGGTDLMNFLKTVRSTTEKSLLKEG
Kind of experiment: IDO Kynurenine Assay with Human IDO1/HEK293 Cells. The class given is cell-based. The settings on record: read-out: HEK human IDO-1 (IC50). The protocol:
IDO Kynurenine Assay with Human IDO1/HEK293 Cells
Human IDO1/HEK293 cells were seeded at 10,000 cells per 50 uL per well with RPMI/phenol red free media contains 10% FBS in a 384-well black wall clear bottom tissue culture plate (Matrix Technologies LLC) 125 nL of certain concentration of compound was then added to each well using ECHO liquid handling systems. The cells were incubated for 20 hours in 37° C. incubator with 5% CO2.
The compound treatments were stopped by adding Trichloroacetic Acid (Sigma-Aldrich) to a final concentration at 0.2%. The cell plate was further incubated at 50° C. for 30 minute. The equal volume supernatant (20 uL) and 0.2% (w/v) Ehrlich reagent (4-dimethylaminobenzaldehyde, Sigma-Aldrich) in glacial acetic acid were mixed in a new clear bottom 384-well plate. This plate was then incubated at room temperature for 30 minute. The absorbance at 490 nm was measured on Envision plate reader.
Compound IC50 values were calculated using the counts of 500 nM of a reference standard treatment as one hundred percent inhibition, and counts of no compound but DMSO treatment as zero percent inhibition.
Broadly, the IC50 is the concentration needed to halve the response being measured. `CC(C)CN(c1cc(F)c(-c2cc(F)ccc2C(=O)O)cc1NC(=O)Nc1ccc2nccn2c1)C1CCCCC1` [Example 404]: the IC50 is 2560 nM.
Regarding `CC(C)CN(c1ccc(-c2cc(F)ccc2C(=O)O)cc1NC(=O)Nc1ccc2ncncc2c1)C1CCCCC1` [Example 405], the IC50 was 1230 nM.
Take `CC(C)CN(c1ccc(-c2cc(F)ccc2C(=O)O)cc1NC(=O)Nc1ccc2nccnc2c1)C1CCCCC1` [Example 406]: the IC50 turned out to be 7.59 nM.
On to `CC(C)CN(c1ccc(-c2cc(F)ccc2C(=O)O)cc1NC(=O)Nc1ccc2nccn2c1)C1CCCCC1` [Example 407], for which the IC50 came out at 3110 nM.
Consider `Cc1cc(NC(=O)Nc2cc(-c3cc(F)ccc3C(=O)O)ccc2N(CC(C)C)C2CCCCC2)no1` [Example 408], for which the IC50 amounted to 10 nM.
With `CC(C)CN(c1ccc(-c2cc(F)ccc2C(=O)O)cc1NC(=O)Nc1ccc2nn(C)cc2c1)C1CCCCC1` [Example 409], the IC50 was determined as 110 nM.
Regarding `Cc1ccc(NC(=O)Nc2cc(-c3cc(F)ccc3C(=O)O)c(F)cc2N(CC(C)C)C2C[C@H]3CC[C@@H]2C3)cc1` (some centres unmarked) [Example 410], the IC50 was 50 nM.
As for `CC(C)CN(c1cc(F)c(-c2cc(F)ccc2C(=O)O)cc1NC(=O)Nc1ccc(C#N)cc1)C1C[C@H]2CC[C@@H]1C2` (some centres unmarked) [Example 411], the IC50 was 50 nM.
Turning to `CCOc1ccc(NC(=O)Nc2cc(-c3cc(F)ccc3C(=O)O)c(F)cc2N(CC(C)C)C2C[C@H]3CC[C@@H]2C3)cc1` (some centres unmarked) [Example 412], the IC50 stood at 60 nM.
Take `Cc1ncc(NC(=O)Nc2cc(-c3cc(F)ccc3C(=O)O)c(F)cc2N(CC(C)C)C2C[C@H]3CC[C@@H]2C3)cn1` (some centres unmarked) [Example 413]: the IC50 is 1960 nM.
With `Cc1ccc(NC(=O)Nc2cc(-c3cc(F)ccc3C(=O)O)ccc2N(CCCC(F)(F)F)C2CCCCC2)cc1` [Example 415], the IC50 was 130 nM.
For `Cc1ccc(NC(=O)Nc2cc(-c3ccccc3C(=O)O)ccc2N(CCCC(F)(F)F)C2CCCCC2)cc1` [Example 416], the IC50 came out at 100 nM.
Consider `C=C(C)CN(CCCC(F)(F)F)c1ccc(-c2ccccc2-c2nnn[nH]2)cc1NC(=O)Nc1ccc(C)cc1` [Example 417], for which the IC50 turned out to be 1.89 nM.
Then `C=C(C)CN(CCCC(F)(F)F)c1ccc(-c2ccccc2C(=O)O)cc1NC(=O)Nc1ccc(C)cc1` [Example 418], with 4.63 nM; and `C=C(C)CN(CCCC(F)(F)F)c1ccc(-c2cc(F)ccc2C(=O)O)cc1NC(=O)Nc1ccc(C)cc1` [Example 419], with 5.08 nM; and `COC(C)(C)CCN(c1ccc(-c2ccccc2C(=O)O)cc1NC(=O)Nc1ccc(C)cc1)C1CCCCC1` [Example 420], with 5250 nM.
Under `COC(C)(C)CCN(c1ccc(-c2cc(F)ccc2C(=O)O)cc1NC(=O)Nc1ccc(C)cc1)C1CCCCC1` [Example 421] stands 3300 nM; under `COC(C)(C)CCN(CCCC(F)(F)F)c1ccc(-c2ccccc2C(=O)O)cc1NC(=O)Nc1ccc(C)cc1` [Example 422], 1480 nM.
Turning to `COC[C@H](C)N(CCCC(F)(F)F)c1ccc(-c2ccccc2-c2nnn[nH]2)cc1NC(=O)Nc1ccc(C)cc1` [Example 423], the IC50 came out at 20 nM.
`[2H]C([2H])(C(C)C)N(c1ccc(-c2ccccc2-c2nnn[nH]2)cc1NC(=O)Nc1ccc(C)cc1)C([2H])([2H])C(C)C` [Example 424]: the IC50 turned out to be 5.27 nM.
Regarding `Cc1ccc(NC(=O)Nc2cc(-c3ccccc3C(=O)O)c(F)cc2N(CC(C)C)CC(C)C)cc1` [Example 425], the IC50 came out at 10 nM.
As for `Cc1ccc(NC(=O)Nc2cc(-c3cc(F)ccc3C(=O)O)c(F)cc2N(CC(C)C)CC(C)C)cc1` [Example 426], the IC50 is 8.85 nM.
As for `CC(C)CN(CC(C)C)c1cc(F)c(-c2ccccc2C(=O)O)cc1NC(=O)Nc1ccc(Cl)cc1F` [Example 427], the half-maximal inhibitory concentration (IC50) is 1.61 nM.
Under `CC(C)CN(CC(C)C)c1cc(F)c(-c2cc(F)ccc2C(=O)O)cc1NC(=O)Nc1ccc(Cl)cc1F` [Example 428] stands 1.84 nM; under `Cc1ccc(NC(=O)Nc2cc(-c3ccccc3-c3nnn[nH]3)c(F)cc2N(CC(C)C)CC(C)C)cc1` [Example 429], 5.55 nM; under `CC(C)CN(c1c(F)cc(-c2ccccc2-c2nnn[nH]2)cc1NC(=O)Nc1ccccc1F)C1CCCCC1` [Example 430], 0.606 nM.
With `CC(C)CN(c1c(F)cc(-c2cc(F)ccc2C(=O)O)cc1NC(=O)Nc1ccccc1F)C1CCCCC1` [Example 431], the IC50 turned out to be 3.76 nM.
As for `CC(C)CN(c1c(F)cc(-c2ccccc2C(=O)O)cc1NC(=O)Nc1ccccc1F)C1CCCCC1` [Example 432], the IC50 came out at 1.82 nM.
In the case of `Cc1ccc(NC(=O)Nc2cc(-c3ccccc3-c3nnn[nH]3)cc(F)c2N(CC(C)C)C2CCCCC2)cc1` [Example 433], the IC50 was 1.97 nM.
Then `CC(C)CN(c1c(F)cc(-c2cc(F)ccc2C(=O)O)cc1NC(=O)Nc1ccc(Cl)cc1F)C1CCCCC1` [Example 434], with 3.7 nM.
Consider `Cc1ccc(NC(=O)Nc2cc(-c3cc(F)ccc3C(=O)O)cc(F)c2N(CC(C)C)C2CCCCC2)cc1` [Example 435], for which the IC50 was 3 nM.
Then `CC(C)CN(c1c(F)cc(-c2ccccc2-c2nnn[nH]2)cc1NC(=O)Nc1ccc(Cl)cc1F)C1CCCCC1` [Example 436], with 1.16 nM; and `Cc1ccc(NC(=O)Nc2cc(-c3ccccc3C(=O)O)cc(F)c2N(CC(C)C)C2CCCCC2)cc1` [Example 437], with 3.13 nM.
With `CC(C)CN(c1c(F)cc(-c2ccccc2C(=O)O)cc1NC(=O)Nc1ccc(Cl)cc1F)C1CCCCC1` [Example 438], the IC50 worked out at 1.67 nM.
Under `CCC(CC)N(CC(C)C)c1ccc(-c2cc(F)ccc2C(=O)O)cc1NC(=O)Nc1ccc(C)cc1` [Example 439] stands 10 nM.
Then `CCC(CC)N(CC(C)C)c1ccc(-c2ccccc2C(=O)O)cc1NC(=O)Nc1ccc(Cl)cc1F` [Example 440], with 1.55 nM; and `CCC(CC)N(CC(C)C)c1ccc(-c2ccccc2-c2nnn[nH]2)cc1NC(=O)Nc1ccc(Cl)cc1F` [Example 441], with 1.14 nM.
With `CCC(CC)N(CC(C)C)c1ccc(-c2cc(F)ccc2C(=O)O)cc1NC(=O)Nc1ccc(Cl)cc1F` [Example 442], the IC50 is 2.23 nM.
Regarding `CCC(CC)N(CC(C)C)c1ccc(-c2ccccc2C(=O)O)cc1NC(=O)Nc1ccc(C)cc1` [Example 443], the IC50 came to 10 nM.
On to `CCC(CC)N(CC(C)C)c1ccc(-c2ccccc2-c2nnn[nH]2)cc1NC(=O)Nc1ccc(C)cc1` [Example 444], for which the IC50 is 3.21 nM.
In the case of `COCCN(c1ccc(-c2ccccc2C(=O)O)cc1NC(=O)Nc1ccc(C)cc1)C1CCCCC1` [Example 445], the IC50 turned out to be 50 nM.
For `COCCN(c1ccc(-c2ccccc2-c2nnn[nH]2)cc1NC(=O)Nc1ccc(C)cc1)C1CCCCC1` [Example 446], the IC50 came to 2.45 nM.
Consider `COCCN(c1ccc(-c2cc(F)ccc2C(=O)O)cc1NC(=O)Nc1ccc(C)cc1)C1CCCCC1` [Example 447], for which the IC50 was 60 nM.
For the compound `CCC(CC)N(CC(C)C)c1ccc(-c2ccccc2C(=O)O)cc1NC(=O)Nc1ccccc1F` [Example 448], the IC50 worked out at 1.56 nM.
Regarding `CCC(CC)N(CC(C)C)c1ccc(-c2ccccc2-c2nnn[nH]2)cc1NC(=O)Nc1ccccc1F` [Example 449], the IC50 was determined as 1.41 nM.
As to `CCC(CC)N(CC(C)C)c1ccc(-c2cc(F)ccc2C(=O)O)cc1NC(=O)Nc1ccccc1F` [Example 450], the IC50 was 5.47 nM.
`COCCN(c1ccc(-c2cc(F)ccc2C(=O)O)cc1NC(=O)Nc1ccc(Cl)cc1F)C1CCCCC1` [Example 451]: the IC50 came to 1.74 nM.
Take `COCCN(c1ccc(-c2ccccc2-c2nnn[nH]2)cc1NC(=O)Nc1ccc(Cl)cc1F)C1CCCCC1` [Example 452]: the IC50 came to 0.661 nM.
For `CC(C)CN(CC(C)C)c1ccc(-c2ccccc2-c2nnn[nH]2)cc1NC(=O)Nc1ccc(OC(F)F)cc1` [Example 453], the IC50 is 9.9 nM.
Turning to `CCOc1ccc(NC(=O)Nc2cc(-c3ccccc3-c3nnn[nH]3)ccc2N(CC(C)C)CC(C)C)cc1` [Example 454], the IC50 turned out to be 2.35 nM.
Under `CC(C)CN(CC(C)C)c1ccc(-c2ccccc2-c2nnn[nH]2)cc1NC(=O)Nc1ccc(C(C)C)cc1` [Example 455] stands 510 nM.
Take `COCCN(c1ccc(-c2ccccc2C(=O)O)cc1NC(=O)Nc1ccc(Cl)cc1F)C1CCCCC1` [Example 456]: the IC50 stood at 0.863 nM.
In the case of `CC(C)CN(CC(C)C)c1ccc(-c2ccccc2-c2nnn[nH]2)cc1NC(=O)Nc1ccc(CC#N)cc1` [Example 457], the IC50 came to 370 nM.
Consider `CC(C)CN(CC(C)C)c1ccc(-c2ccccc2-c2nnn[nH]2)cc1NC(=O)Nc1ccc2c(c1)CCC2` [Example 458], for which the IC50 is 140 nM.
Under `CCc1ccc(NC(=O)Nc2cc(-c3ccccc3-c3nnn[nH]3)ccc2N(CC(C)C)CC(C)C)cc1` [Example 459] stands 7.09 nM; under `C=C(C)CN(c1ccc(-c2ccccc2C(=O)O)cc1NC(=O)Nc1ccc(C)cc1)C1CCCCC1` [Example 460], 2.4 nM; under `C=C(C)CN(c1ccc(-c2cc(F)ccc2C(=O)O)cc1NC(=O)Nc1ccc(C)cc1)C1CCCCC1` [Example 461], 4.24 nM.
`C=C(C)CN(c1ccc(-c2ccccc2-c2nnn[nH]2)cc1NC(=O)Nc1ccc(C)cc1)C1CCCCC1` [Example 462]: the IC50 was 1.11 nM.
As to `CC(C)CN(CC(C)C)c1ccc(-c2ccccc2-c2nnn[nH]2)cc1NC(=O)Nc1ccc(N(C)C)cc1` [Example 463], the IC50 turned out to be 20 nM.
